Literature values as cited in patent US20100055173A1, “RELEASE OF STATINS IN THE INTESTINE” (priority 2006, published 2010).
Like-named read-outs stand apart in the source and are kept apart here.

Tests used:
HMG-CoA reductase = biological target: T1, HMG-CoA reductase (Homo sapiens, UniProt P04035); conditions: considering the beta-hydroxy acid form as the drug
T1 sequence (P04035 1-888): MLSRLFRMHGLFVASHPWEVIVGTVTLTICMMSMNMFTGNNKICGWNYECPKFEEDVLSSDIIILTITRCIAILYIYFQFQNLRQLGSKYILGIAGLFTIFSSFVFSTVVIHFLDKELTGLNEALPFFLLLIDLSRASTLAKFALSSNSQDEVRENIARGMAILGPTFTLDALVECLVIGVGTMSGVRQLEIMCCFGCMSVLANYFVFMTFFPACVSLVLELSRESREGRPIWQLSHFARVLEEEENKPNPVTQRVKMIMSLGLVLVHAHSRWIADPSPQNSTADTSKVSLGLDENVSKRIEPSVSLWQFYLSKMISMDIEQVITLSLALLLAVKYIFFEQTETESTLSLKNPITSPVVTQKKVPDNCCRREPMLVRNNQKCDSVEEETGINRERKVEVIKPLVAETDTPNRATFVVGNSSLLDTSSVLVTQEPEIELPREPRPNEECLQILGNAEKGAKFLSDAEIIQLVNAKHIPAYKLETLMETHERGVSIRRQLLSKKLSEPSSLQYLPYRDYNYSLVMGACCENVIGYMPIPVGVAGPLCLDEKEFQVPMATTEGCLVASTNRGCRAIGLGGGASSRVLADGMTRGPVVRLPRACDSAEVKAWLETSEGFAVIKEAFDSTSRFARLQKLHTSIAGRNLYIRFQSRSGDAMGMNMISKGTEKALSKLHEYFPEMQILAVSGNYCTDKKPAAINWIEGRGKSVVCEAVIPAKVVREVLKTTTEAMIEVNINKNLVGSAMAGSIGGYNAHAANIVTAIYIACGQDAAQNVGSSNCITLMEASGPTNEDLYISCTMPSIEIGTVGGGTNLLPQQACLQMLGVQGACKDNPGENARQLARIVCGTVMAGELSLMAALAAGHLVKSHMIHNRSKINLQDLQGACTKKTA

plasma proteins = conditions: primarily to albumin

| HMG-CoA reductase activity retained (HMG-CoA reductase) | Compound | bound to plasma proteins (plasma proteins) | bound to plasma proteins (plasma proteins; listed as Simvastatin) |
| --- | --- | --- | --- |
| ~50% | CCC(C)(C)C(=O)OC1CC(C)(O)C=C2C=CC(C)C(CCC3CC(O)CC(=O)O3)C21 (stereo not drawn) [6-beta-hydroxy simvastatin] | – | – |
| approximately 40% | CCC(C)(C)C(=O)O[C@H]1C[C@@H](CO)C=C2C=C[C@H](C)[C@H](CC[C@@H]3C[C@@H](O)CC(=O)O3)[C@H]21 [6-beta-hydroxymethyl, 6-beta-hydroxymethyl simvastatin] | – | – |
| – | CCC(C)(C)C(=O)O[C@H]1C[C@@H](C)C=C2C=C[C@H](C)[C@H](CC[C@@H](O)C[C@@H](O)CC(=O)O)[C@H]21 [open hydroxyl acid form, β-hydroxyacid-simvastatin] | 94.5% | – |
| – | CCC(C)(C)C(=O)O[C@H]1C[C@@H](C)C=C2C=C[C@H](C)[C@H](CC[C@@H]3C[C@@H](O)CC(=O)O3)[C@H]21 [simvastatin] | More than 98% | more than 95% |
